The OligoGym collection
HELM strings list units from the 5' end as sugar, base in round brackets, then linkage (d deoxyribose, r ribose, m 2'-O-methyl, p phosphodiester). Strings are as the collection lists them; they lack the last nucleoside at the 3' end of the tested compound. [moe] = 2'-O-(2-methoxyethyl) (MOE); [sp] = phosphorothioate linkage; [m5C] = 5-methylcytosine

The substances below were run against PRNP (assay: mouse, dose not given). Conditions: ASO.

Going from “RNA1{[moe](T)[sp].[moe](G)p.[moe](T)p.[moe]([m5C])p.[moe](A)p.d(G)[sp].d(T)[sp].d(T)[sp].d(T)[sp].d(T)[sp].d(T)[sp].d([m5C])[sp].d([m5C])[sp].d([m5C])[sp].[moe]([m5C])[sp].[moe](A)p.[moe]([m5C])p.[moe](A)}$$$$ (last 3' nucleoside missing)” to “RNA1{[moe](T)[sp].[moe](G)p.[moe](G)p.[moe](A)p.[moe](A)[sp].d(G)[sp].d(A)[sp].d([m5C])[sp].d(T)[sp].d(T)[sp].d(G)[sp].d(T)[sp].d(G)[sp].d(T)[sp].d(T)[sp].[moe](A)p.[moe](G)p.[moe](A)[sp].[moe](T)}$$$$ (last 3' nucleoside missing)”, the 3 h FOB score rises from 0 score 0-7 to 6.5 score 0-7.

First: RNA1{[moe]([m5C])[sp].[moe](T)p.[moe](A)p.[moe](T)p.[moe](G)p.d(T)[sp].d(T)[sp].d(T)[sp].d(T)[sp].d([m5C])[sp].d([m5C])[sp].d(A)[sp].d(G)[sp].d(T)[sp].[moe](G)p.[moe]([m5C])p.[moe]([m5C])[sp].[moe]([m5C])}$$$$ (last 3' nucleoside missing)
Second: RNA1{[moe]([m5C])[sp].[moe](T)p.[moe](T)p.[moe](A)p.[moe](T)p.d(T)[sp].d(A)[sp].d(T)[sp].d(T)[sp].d([m5C])[sp].d(A)[sp].d(T)[sp].d(G)[sp].d(T)[sp].[moe](T)p.[moe]([m5C])p.[moe](T)[sp].[moe]([m5C])}$$$$ (last 3' nucleoside missing)
The 3 h FOB score of the first is higher: 1 score 0-7 for the first, 0 score 0-7 for the second.

Going from “RNA1{[moe](T)[sp].[moe](G)p.[moe](G)p.[moe](T)p.[moe](G)[sp].d(A)[sp].d(T)[sp].d(T)[sp].d(T)[sp].d(T)[sp].d(T)[sp].d(T)[sp].d([m5C])[sp].d([m5C])[sp].d(T)[sp].[moe](T)p.[moe](T)p.[moe]([m5C])[sp].[moe](T)}$$$$ (last 3' nucleoside missing)” to “RNA1{[moe](G)[sp].[moe](T)p.[moe](T)p.[moe](G)p.[moe](T)[sp].d(T)[sp].d(G)[sp].d(A)[sp].d(T)[sp].d(T)[sp].d(T)[sp].d(T)[sp].d(T)[sp].d([m5C])[sp].d([m5C])[sp].[moe](A)p.[moe](G)p.[moe](A)[sp].[moe](A)}$$$$ (last 3' nucleoside missing)”, the 3 h FOB score rises from 0 score 0-7 to 4.75 score 0-7.

“RNA1{[moe](G)[sp].[moe](T)p.[moe]([m5C])p.[moe](A)p.d(G)[sp].d(T)[sp].d(T)[sp].d(T)[sp].d(T)[sp].d(T)[sp].d([m5C])[sp].d([m5C])[sp].d([m5C])[sp].d([m5C])[sp].[moe](A)p.[moe]([m5C])p.[moe](A)p.[moe](T)[sp].[moe](A)}$$$$ (last 3' nucleoside missing)” and “RNA1{[moe]([m5C])[sp].[moe](T)p.[moe]([m5C])p.[moe](A)p.[moe](G)[sp].d(G)[sp].d(T)[sp].d([m5C])[sp].d(T)[sp].d(A)[sp].d([m5C])[sp].d(T)[sp].d([m5C])[sp].d(T)[sp].d(A)[sp].[moe](T)p.[moe](G)p.[moe](T)[sp].[moe](T)}$$$$ (last 3' nucleoside missing)” are the same in 3 h FOB score: 0 score 0-7 for the first, 0 score 0-7 for the second.

Going from “RNA1{[moe](T)[sp].[moe]([m5C])p.[moe](A)p.[moe](T)p.[moe](A)[sp].d(T)[sp].d(T)[sp].d(T)[sp].d([m5C])[sp].d(T)[sp].d(G)[sp].d(T)[sp].d([m5C])[sp].d(A)[sp].d(T)[sp].[moe]([m5C])p.[moe](T)p.[moe]([m5C])[sp].[moe]([m5C])}$$$$ (last 3' nucleoside missing)” to “RNA1{[moe](T)[sp].[moe](T)p.[moe](A)p.[moe]([m5C])p.[moe](T)[sp].d([m5C])[sp].d(G)[sp].d(G)[sp].d([m5C])[sp].d(T)[sp].d(T)[sp].d(G)[sp].d(T)[sp].d(T)[sp].d([m5C])[sp].[moe]([m5C])p.[moe](A)p.[moe]([m5C])[sp].[moe](T)}$$$$ (last 3' nucleoside missing)”, the 3 h FOB score falls from 3 score 0-7 to 2.5 score 0-7.

Going from “RNA1{[moe](A)[sp].[moe](G)p.[moe](T)p.[moe](T)p.[moe]([m5C])[sp].d(T)[sp].d(T)[sp].d(T)[sp].d(T)[sp].d([m5C])[sp].d(T)[sp].d(T)[sp].d(T)[sp].d(G)[sp].d([m5C])[sp].[moe](A)p.[moe]([m5C])p.[moe](A)[sp].[moe]([m5C])}$$$$ (last 3' nucleoside missing)” to “RNA1{[moe]([m5C])[sp].[moe]([m5C])p.[moe](T)p.[moe](G)p.[moe](T)[sp].d(T)[sp].d(A)[sp].d(A)[sp].d(T)[sp].d(G)[sp].d(G)[sp].d(T)[sp].d(G)[sp].d(T)[sp].d([m5C])[sp].[moe]([m5C])p.[moe](A)p.[moe]([m5C])[sp].[moe](T)}$$$$ (last 3' nucleoside missing)”, the 3 h FOB score falls from 5.25 score 0-7 to 2.5 score 0-7.

First: RNA1{[moe](G)[sp].[moe](T)p.[moe](G)p.[moe](T)p.[moe](T)[sp].d([m5C])[sp].d([m5C])[sp].d(A)[sp].d(T)[sp].d([m5C])[sp].d([m5C])[sp].d(T)[sp].d([m5C])[sp].d([m5C])[sp].d(A)[sp].[moe](G)p.[moe](G)p.[moe]([m5C])[sp].[moe](T)}$$$$ (last 3' nucleoside missing)
Second: RNA1{[moe](A)[sp].[moe](G)p.[moe]([m5C])p.[moe](T)p.[moe]([m5C])[sp].d(T)[sp].d(A)[sp].d(T)[sp].d(T)[sp].d(A)[sp].d(A)[sp].d(T)[sp].d(A)[sp].d(G)[sp].d(G)[sp].[moe](T)p.[moe](T)p.[moe](A)[sp].[moe](G)}$$$$ (last 3' nucleoside missing)
The 3 h FOB score of the first is lower: 1 score 0-7 for the first, 5.5 score 0-7 for the second.

First: RNA1{[moe]([m5C])[sp].[moe](T)p.[moe]([m5C])p.[moe](T)p.[moe](A)[sp].d(T)[sp].d(G)[sp].d(T)[sp].d(T)[sp].d(T)[sp].d(T)[sp].d([m5C])[sp].d([m5C])[sp].d(A)[sp].d(G)[sp].[moe](T)p.[moe](G)p.[moe]([m5C])[sp].[moe]([m5C])}$$$$ (last 3' nucleoside missing)
Second: RNA1{[moe](A)[sp].[moe](A)p.[moe](T)p.[moe]([m5C])p.[moe](A)[sp].d(T)[sp].d(A)[sp].d(T)[sp].d(T)[sp].d(T)[sp].d([m5C])[sp].d(T)[sp].d(G)[sp].d(T)[sp].d([m5C])[sp].[moe](A)p.[moe](T)p.[moe]([m5C])[sp].[moe](T)}$$$$ (last 3' nucleoside missing)
The 3 h FOB score of the first is lower: 1 score 0-7 for the first, 5 score 0-7 for the second.

Going from “RNA1{[moe](G)[sp].[moe]([m5C])p.[moe](A)p.[moe](A)p.[moe](G)[sp].d([m5C])[sp].d(A)[sp].d(G)[sp].d(T)[sp].d(T)[sp].d([m5C])[sp].d(T)[sp].d(T)[sp].d(T)[sp].d(T)[sp].[moe]([m5C])p.[moe](T)p.[moe](T)[sp].[moe](T)}$$$$ (last 3' nucleoside missing)” to “RNA1{[moe]([m5C])[sp].[moe](T)p.[moe](G)p.[moe](T)p.[moe](T)[sp].d(G)[sp].d([m5C])[sp].d(A)[sp].d([m5C])[sp].d(T)[sp].d(A)[sp].d(A)[sp].d(G)[sp].d(T)[sp].d([m5C])[sp].[moe]([m5C])p.[moe](A)p.[moe](A)[sp].[moe](A)}$$$$ (last 3' nucleoside missing)”, the 3 h FOB score falls from 6 score 0-7 to 1 score 0-7.

First: RNA1{[moe](G)[sp].[moe]([m5C])p.[moe](A)p.[moe]([m5C])p.[moe](A)[sp].d([m5C])[sp].d(T)[sp].d(G)[sp].d(A)[sp].d([m5C])[sp].d([m5C])[sp].d(A)[sp].d(T)[sp].d(T)[sp].d(T)[sp].[moe](T)p.[moe](T)p.[moe](T)[sp].[moe](A)}$$$$ (last 3' nucleoside missing)
Second: RNA1{[moe](G)[sp].[moe](T)p.[moe](G)p.[moe](A)p.[moe]([m5C])[sp].d(A)[sp].d(A)[sp].d(T)[sp].d(A)[sp].d(T)[sp].d(T)[sp].d(T)[sp].d(A)[sp].d([m5C])[sp].d(T)[sp].[moe]([m5C])p.[moe](T)p.[moe](T)[sp].[moe](G)}$$$$ (last 3' nucleoside missing)
The 3 h FOB score of the first is lower: 0 score 0-7 for the first, 1 score 0-7 for the second.

Compared with “RNA1{[moe](A)[sp].[moe](T)p.[moe](G)p.[moe](T)p.[moe](T)[sp].d(T)[sp].d(T)[sp].d([m5C])[sp].d([m5C])[sp].d(A)[sp].d(G)[sp].d(T)[sp].d(G)[sp].d([m5C])[sp].d([m5C])[sp].[moe]([m5C])p.[moe](A)p.[moe](T)[sp].[moe]([m5C])}$$$$ (last 3' nucleoside missing)”, “RNA1{[moe]([m5C])[sp].[moe](T)p.[moe](T)p.[moe](A)p.[moe]([m5C])p.d(T)[sp].d([m5C])[sp].d(G)[sp].d(G)[sp].d([m5C])[sp].d(T)[sp].d(T)[sp].d(G)[sp].d(T)[sp].[moe](T)p.[moe]([m5C])p.[moe]([m5C])[sp].[moe](A)}$$$$ (last 3' nucleoside missing)” is lower in 3 h FOB score: 5.75 score 0-7 for the first, 1.75 score 0-7 for the second.

First: RNA1{[moe](A)[sp].[moe](G)p.[moe](T)p.[moe](A)p.[moe](T)[sp].d([m5C])[sp].d(A)[sp].d(T)[sp].d(G)[sp].d(T)[sp].d(G)[sp].d(G)[sp].d([m5C])[sp].d([m5C])[sp].d(T)[sp].[moe]([m5C])p.[moe]([m5C])p.[moe](T)[sp].[moe](A)}$$$$ (last 3' nucleoside missing)
Second: RNA1{[moe](A)[sp].[moe](A)p.[moe](T)p.[moe](G)p.[moe](A)[sp].d([m5C])[sp].d(T)[sp].d([m5C])[sp].d(A)[sp].d(T)[sp].d([m5C])[sp].d(A)[sp].d(T)[sp].d(T)[sp].d(T)[sp].[moe](T)p.[moe](G)p.[moe]([m5C])[sp].[moe]([m5C])}$$$$ (last 3' nucleoside missing)
The 3 h FOB score of the first is higher: 5.75 score 0-7 for the first, 0 score 0-7 for the second.

First: RNA1{[moe](A)[sp].[moe]([m5C])p.[moe](T)p.[moe](T)p.d(G)[sp].d(T)[sp].d([m5C])[sp].d(A)[sp].d(G)[sp].d(T)[sp].d(T)[sp].d(T)[sp].d(T)[sp].d(T)[sp].[moe]([m5C])p.[moe]([m5C])p.[moe]([m5C])p.[moe]([m5C])[sp].[moe](A)}$$$$ (last 3' nucleoside missing)
Second: RNA1{[moe](A)[sp].[moe](G)p.[moe](A)p.[moe](G)p.[moe]([m5C])[sp].d(A)[sp].d(A)[sp].d(T)[sp].d(A)[sp].d(T)[sp].d(A)[sp].d(T)[sp].d(T)[sp].d([m5C])[sp].d(A)[sp].[moe]([m5C])p.[moe]([m5C])p.[moe](A)[sp].[moe](A)}$$$$ (last 3' nucleoside missing)
The 3 h FOB score of the first is higher: 2.5 score 0-7 for the first, 0 score 0-7 for the second.
